Where two headings read alike, the source gives them in different places.
Key:
Assay in all cases: Kinase panel
Assay type in all cases: biochemical
[1] = biological target: BTK (Homo sapiens, UniProt Q06187); settings: read-out: residual enzyme activity
Protocol: (§1) To measure the inhibitory activity of protein kinases against the compounds of the present invention, a biochemical assay was performed using a full kinase panel. The inhibitory efficacy of kinases was measured when Example compounds 8 and 51 were treated at a single concentration of 1 µM, and residual enzyme activity values were calculated. Kinases were identified when the calculated residual enzyme activity values were 40% or less, i.e., inhibited by 60% or more.

[2] = biological target: C-MET (Homo sapiens, UniProt P08581); settings: read-out: residual enzyme activity
Protocol: as §1

[3] = biological target: CAMK2G (Homo sapiens, UniProt Q13555); settings: read-out: residual enzyme activity
Protocol: as §1

[4] = biological target: CAMK4 (Homo sapiens, UniProt Q16566); settings: CAMK4, 1 µM; read-out: residual enzyme activity
Protocol: as §1

[5] = biological target: EPHB4 (Homo sapiens, UniProt P54760); settings: EPHB4, 1 µM; read-out: residual enzyme activity
Protocol: as §1

[6] = biological target: ERBB2/HER2 (Homo sapiens, UniProt P04626); settings: ERBB2/HER2, 1 µM; read-out: residual enzyme activity
Protocol: as §1

[7] = biological target: ERBB4/HER4 (Homo sapiens, UniProt Q15303); settings: ERBB4/HER4, 1 µM; read-out: residual enzyme activity
Protocol: as §1

[8] = biological target: FES/FPS (Homo sapiens, UniProt P07332); settings: read-out: residual enzyme activity
Protocol: as §1

[9] = biological target: GRK2 (Homo sapiens, UniProt P25098); settings: GRK2, 1 µM; read-out: residual enzyme activity
Protocol: as §1

[10] = biological target: HASPIN (Homo sapiens, UniProt Q8TF76); settings: read-out: residual enzyme activity
Protocol: as §1

[11] = biological target: HGK/MAP4K4 (Homo sapiens, UniProt O95819); settings: HGK/MAP4K4, 1 µM; read-out: residual enzyme activity
Protocol: as §1

[12] = biological target: IKKB/IKBKB (Homo sapiens, UniProt O14920); settings: read-out: residual enzyme activity
Protocol: as §1

[13] = biological target: KDR/VEGFR2 (Homo sapiens, UniProt P35968); settings: KDR/VEGFR2, 1 µM; read-out: residual enzyme activity
Protocol: as §1

[14] = biological target: KSR1 (Homo sapiens, UniProt Q8IVT5); settings: KSR1, 1 µM; read-out: residual enzyme activity
Protocol: as §1

[15] = biological target: LRRK2 (Homo sapiens, UniProt Q5S007); settings: LRRK2, 1 µM; read-out: residual enzyme activity
Protocol: as §1

[16] = biological target: MARK3 (Homo sapiens, UniProt P27448); settings: MARK3, 1 µM; read-out: residual enzyme activity
Protocol: as §1

[17] = biological target: MSK1/RPS6KA5 (Homo sapiens, UniProt O75582); settings: MSK1/RPS6KA5, 1 µM; read-out: residual enzyme activity
Protocol: as §1

[18] = biological target: P38A/MAPK14 (Homo sapiens, UniProt Q16539); settings: read-out: residual enzyme activity
Protocol: as §1

[19] = biological target: P38G (Homo sapiens, UniProt P53778); settings: read-out: residual enzyme activity
Protocol: as §1

[20] = biological target: PDGFRA (Homo sapiens, UniProt P16234); settings: read-out: residual enzyme activity
Protocol: as §1

[21] = biological target: PHKG1 (Homo sapiens, UniProt Q16816); settings: read-out: residual enzyme activity
Protocol: as §1

[22] = biological target: PKCG (Homo sapiens, UniProt P05129); settings: read-out: residual enzyme activity
Protocol: as §1

[23] = biological target: PKG1B (Homo sapiens, UniProt Q13976); settings: read-out: residual enzyme activity
Protocol: as §1

[24] = biological target: PKN1/PRK1 (Homo sapiens, UniProt Q16512); settings: PKN1/PRK1, 1 µM; read-out: residual enzyme activity
Protocol: as §1

[25] = biological target: RSK2 (Homo sapiens, UniProt P51812); settings: RSK2, 1 µM; read-out: residual enzyme activity
Protocol: as §1

[26] = biological target: SBK1 (Homo sapiens, UniProt Q52WX2); settings: SBK1, 1 µM; read-out: residual enzyme activity
Protocol: as §1

[27] = biological target: SRPK2 (Homo sapiens, UniProt P78362); settings: SRPK2, 1 µM; read-out: residual enzyme activity
Protocol: as §1

[28] = biological target: TIE2/TEK (Homo sapiens, UniProt Q02763); settings: read-out: residual enzyme activity
Protocol: as §1

[29] = biological target: TLK2 (Homo sapiens, UniProt Q86UE8); settings: TLK2, 1 µM; read-out: residual enzyme activity
Protocol: as §1

[30] = biological target: ULK3 (Homo sapiens, UniProt Q6PHR2); settings: ULK3, 1 µM; read-out: residual enzyme activity
Protocol: as §1

[31] = biological target: WEE1 (Homo sapiens, UniProt P30291); settings: WEE1, 1 µM; read-out: residual enzyme activity
Protocol: as §1

[32] = biological target: WNK2 (Homo sapiens, UniProt Q9Y3S1); settings: WNK2, 1 µM; read-out: residual enzyme activity
Protocol: as §1

[33] = biological target: ZAK/MLTK (Homo sapiens, UniProt Q9NYL2); settings: read-out: residual enzyme activity
Protocol: as §1

Chain of SRPK2 (P78362 whole entry, species assumed): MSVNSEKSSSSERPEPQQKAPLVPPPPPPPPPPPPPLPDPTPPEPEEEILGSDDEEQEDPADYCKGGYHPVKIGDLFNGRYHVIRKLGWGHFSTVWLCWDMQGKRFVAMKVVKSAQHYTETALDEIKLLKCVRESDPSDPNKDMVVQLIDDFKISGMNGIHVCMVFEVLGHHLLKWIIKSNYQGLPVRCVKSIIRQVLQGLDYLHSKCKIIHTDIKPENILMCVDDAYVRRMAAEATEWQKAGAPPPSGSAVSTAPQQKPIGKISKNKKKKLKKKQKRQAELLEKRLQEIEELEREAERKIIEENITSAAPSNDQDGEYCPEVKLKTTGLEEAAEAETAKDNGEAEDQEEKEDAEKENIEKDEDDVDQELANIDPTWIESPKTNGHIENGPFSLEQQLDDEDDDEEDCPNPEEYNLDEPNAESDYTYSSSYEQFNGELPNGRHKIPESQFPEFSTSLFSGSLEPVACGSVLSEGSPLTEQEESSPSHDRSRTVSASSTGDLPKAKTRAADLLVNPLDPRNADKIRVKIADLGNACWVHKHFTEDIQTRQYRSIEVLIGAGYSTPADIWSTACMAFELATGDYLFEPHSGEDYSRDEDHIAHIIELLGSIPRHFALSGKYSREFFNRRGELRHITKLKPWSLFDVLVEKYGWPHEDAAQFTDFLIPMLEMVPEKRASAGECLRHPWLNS
Chain of PHKG1 (Q16816 whole entry, species assumed): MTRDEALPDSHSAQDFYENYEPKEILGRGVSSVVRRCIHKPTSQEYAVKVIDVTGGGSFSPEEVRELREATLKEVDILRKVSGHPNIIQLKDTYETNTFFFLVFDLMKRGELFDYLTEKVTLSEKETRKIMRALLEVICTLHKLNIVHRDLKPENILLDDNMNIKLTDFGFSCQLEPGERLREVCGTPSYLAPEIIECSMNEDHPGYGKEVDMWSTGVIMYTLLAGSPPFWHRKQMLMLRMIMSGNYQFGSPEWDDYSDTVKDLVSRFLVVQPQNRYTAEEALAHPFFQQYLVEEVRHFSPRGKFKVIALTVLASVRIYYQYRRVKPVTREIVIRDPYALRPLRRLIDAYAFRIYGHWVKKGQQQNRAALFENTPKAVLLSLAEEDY
Chain of CAMK2G (Q13555 whole entry, species assumed): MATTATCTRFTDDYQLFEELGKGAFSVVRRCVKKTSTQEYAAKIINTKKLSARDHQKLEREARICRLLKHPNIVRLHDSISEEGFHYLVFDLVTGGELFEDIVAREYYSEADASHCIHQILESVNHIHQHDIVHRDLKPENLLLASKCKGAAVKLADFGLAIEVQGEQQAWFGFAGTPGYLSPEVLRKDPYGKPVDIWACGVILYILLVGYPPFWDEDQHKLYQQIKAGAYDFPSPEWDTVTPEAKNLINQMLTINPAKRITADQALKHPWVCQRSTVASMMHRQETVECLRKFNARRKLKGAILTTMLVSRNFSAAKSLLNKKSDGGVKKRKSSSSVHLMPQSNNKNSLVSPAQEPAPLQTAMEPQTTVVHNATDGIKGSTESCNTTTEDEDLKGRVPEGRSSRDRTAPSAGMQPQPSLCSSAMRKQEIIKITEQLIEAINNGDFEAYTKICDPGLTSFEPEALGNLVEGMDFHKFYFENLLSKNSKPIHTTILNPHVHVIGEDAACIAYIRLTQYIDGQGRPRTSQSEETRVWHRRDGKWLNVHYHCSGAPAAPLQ
Chain of ZAK/MLTK (Q9NYL2 whole entry): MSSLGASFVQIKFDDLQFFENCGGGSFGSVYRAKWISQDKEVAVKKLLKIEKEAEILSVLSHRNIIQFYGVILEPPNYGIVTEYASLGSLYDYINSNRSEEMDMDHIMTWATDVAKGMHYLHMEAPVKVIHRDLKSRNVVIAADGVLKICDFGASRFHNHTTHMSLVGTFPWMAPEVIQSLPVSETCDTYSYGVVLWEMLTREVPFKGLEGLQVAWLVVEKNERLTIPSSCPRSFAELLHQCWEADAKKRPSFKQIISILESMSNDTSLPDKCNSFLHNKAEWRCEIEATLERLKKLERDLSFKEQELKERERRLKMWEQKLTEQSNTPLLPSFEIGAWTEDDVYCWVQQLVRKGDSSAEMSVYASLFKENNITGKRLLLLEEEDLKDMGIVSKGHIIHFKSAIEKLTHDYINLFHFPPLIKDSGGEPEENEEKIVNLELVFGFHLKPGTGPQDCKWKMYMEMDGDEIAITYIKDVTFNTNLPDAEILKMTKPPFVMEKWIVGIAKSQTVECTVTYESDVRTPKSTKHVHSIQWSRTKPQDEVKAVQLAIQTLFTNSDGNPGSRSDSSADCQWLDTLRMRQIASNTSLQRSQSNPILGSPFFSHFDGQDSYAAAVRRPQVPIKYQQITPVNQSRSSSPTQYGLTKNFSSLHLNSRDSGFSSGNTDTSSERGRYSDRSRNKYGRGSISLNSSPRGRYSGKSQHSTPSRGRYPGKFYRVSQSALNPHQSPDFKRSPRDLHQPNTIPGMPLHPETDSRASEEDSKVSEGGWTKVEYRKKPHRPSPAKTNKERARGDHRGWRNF
Chain of MSK1/RPS6KA5 (O75582 whole entry): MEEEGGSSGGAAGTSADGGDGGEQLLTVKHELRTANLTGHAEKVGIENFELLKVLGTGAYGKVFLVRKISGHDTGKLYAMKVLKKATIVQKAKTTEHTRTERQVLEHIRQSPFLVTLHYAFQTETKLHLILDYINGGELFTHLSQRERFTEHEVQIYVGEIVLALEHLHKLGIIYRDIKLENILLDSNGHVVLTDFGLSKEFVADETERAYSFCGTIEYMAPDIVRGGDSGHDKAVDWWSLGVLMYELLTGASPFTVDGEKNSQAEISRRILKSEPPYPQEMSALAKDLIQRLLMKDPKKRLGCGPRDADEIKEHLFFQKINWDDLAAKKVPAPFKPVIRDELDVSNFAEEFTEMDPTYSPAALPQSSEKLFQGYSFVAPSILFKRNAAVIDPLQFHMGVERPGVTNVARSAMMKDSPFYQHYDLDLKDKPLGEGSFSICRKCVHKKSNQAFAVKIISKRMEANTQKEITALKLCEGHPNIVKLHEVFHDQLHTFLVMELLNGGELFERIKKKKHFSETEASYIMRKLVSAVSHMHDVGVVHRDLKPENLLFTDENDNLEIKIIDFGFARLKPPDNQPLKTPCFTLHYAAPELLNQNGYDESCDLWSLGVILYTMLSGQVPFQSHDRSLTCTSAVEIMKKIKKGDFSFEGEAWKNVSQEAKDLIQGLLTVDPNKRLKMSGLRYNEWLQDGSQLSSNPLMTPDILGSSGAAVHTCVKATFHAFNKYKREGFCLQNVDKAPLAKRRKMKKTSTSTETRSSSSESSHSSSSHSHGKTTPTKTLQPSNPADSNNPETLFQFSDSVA
Chain of PDGFRA (P16234 24-1089, species assumed): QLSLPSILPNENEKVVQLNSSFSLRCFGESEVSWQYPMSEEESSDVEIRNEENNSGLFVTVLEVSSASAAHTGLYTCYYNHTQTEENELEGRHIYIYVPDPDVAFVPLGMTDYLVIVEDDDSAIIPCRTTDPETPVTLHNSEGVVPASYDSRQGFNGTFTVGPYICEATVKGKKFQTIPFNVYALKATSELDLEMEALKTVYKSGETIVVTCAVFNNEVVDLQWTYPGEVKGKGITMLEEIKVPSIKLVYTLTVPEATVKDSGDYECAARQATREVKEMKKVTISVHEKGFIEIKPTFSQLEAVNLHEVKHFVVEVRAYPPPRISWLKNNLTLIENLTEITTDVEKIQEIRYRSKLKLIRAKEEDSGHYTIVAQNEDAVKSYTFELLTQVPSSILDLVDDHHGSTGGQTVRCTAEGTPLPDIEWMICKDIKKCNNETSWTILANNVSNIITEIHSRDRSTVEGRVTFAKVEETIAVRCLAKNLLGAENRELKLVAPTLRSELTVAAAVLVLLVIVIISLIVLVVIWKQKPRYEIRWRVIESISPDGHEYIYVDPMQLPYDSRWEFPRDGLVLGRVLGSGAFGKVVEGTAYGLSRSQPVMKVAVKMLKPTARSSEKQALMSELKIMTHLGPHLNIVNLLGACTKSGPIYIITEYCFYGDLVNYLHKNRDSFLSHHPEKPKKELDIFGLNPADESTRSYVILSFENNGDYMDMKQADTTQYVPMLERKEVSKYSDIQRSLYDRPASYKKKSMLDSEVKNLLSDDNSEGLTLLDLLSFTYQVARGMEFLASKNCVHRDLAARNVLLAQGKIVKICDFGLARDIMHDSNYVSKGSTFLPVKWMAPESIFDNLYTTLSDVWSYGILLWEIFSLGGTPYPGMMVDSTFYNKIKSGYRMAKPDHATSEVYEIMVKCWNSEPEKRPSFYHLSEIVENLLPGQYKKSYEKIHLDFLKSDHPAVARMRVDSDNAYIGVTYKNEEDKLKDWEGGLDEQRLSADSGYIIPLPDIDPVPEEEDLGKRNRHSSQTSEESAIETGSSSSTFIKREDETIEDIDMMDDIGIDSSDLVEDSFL
Chain of P38A/MAPK14 (Q16539 2-360 limits assumed): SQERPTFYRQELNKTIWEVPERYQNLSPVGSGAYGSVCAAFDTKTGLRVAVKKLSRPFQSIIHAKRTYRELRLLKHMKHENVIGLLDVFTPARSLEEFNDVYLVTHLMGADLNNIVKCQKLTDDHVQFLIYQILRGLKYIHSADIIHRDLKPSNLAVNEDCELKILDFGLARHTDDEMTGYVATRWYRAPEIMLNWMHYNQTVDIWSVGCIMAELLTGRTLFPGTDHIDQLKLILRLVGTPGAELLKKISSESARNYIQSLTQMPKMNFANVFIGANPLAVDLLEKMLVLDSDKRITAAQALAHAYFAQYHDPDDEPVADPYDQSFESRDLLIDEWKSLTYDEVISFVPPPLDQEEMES
Chain of P38G (P53778 whole entry): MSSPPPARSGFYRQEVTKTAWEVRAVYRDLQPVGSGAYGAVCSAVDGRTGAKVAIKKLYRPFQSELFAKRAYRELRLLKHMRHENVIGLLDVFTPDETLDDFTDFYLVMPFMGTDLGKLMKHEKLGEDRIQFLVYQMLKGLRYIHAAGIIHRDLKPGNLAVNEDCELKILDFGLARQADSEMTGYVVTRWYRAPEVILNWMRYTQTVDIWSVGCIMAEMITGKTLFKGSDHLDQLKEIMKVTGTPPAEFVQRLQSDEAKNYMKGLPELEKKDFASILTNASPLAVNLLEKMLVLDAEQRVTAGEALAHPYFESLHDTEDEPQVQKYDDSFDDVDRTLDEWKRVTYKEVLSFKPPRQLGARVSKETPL

SMILES | remaining activity at 1 µM [1] [%] | remaining activity at 1 µM [4] [%] | remaining activity at 1 µM [5] [%] | remaining activity at 1 µM [6] [%] | remaining activity at 1 µM [7] [%] | remaining activity at 1 µM [8] [%] | remaining activity at 1 µM [9] [%] | remaining activity at 1 µM [10] [%] | remaining activity at 1 µM [11] [%] | remaining activity at 1 µM [12] [%] | remaining activity at 1 µM [13] [%] | remaining activity at 1 µM [14] [%] | remaining activity at 1 µM [15] [%] | remaining activity at 1 µM [16] [%] | remaining activity at 1 µM [17] [%] | remaining activity at 1 µM [20] [%] | remaining activity at 1 µM [22] [%] | remaining activity at 1 µM [24] [%] | remaining activity at 1 µM [25] [%] | remaining activity at 1 µM [26] [%] | other results
Cc1cn(-c2cc(C(=O)Nc3ccc(C)c(N4Cc5cnc(NC6CC6)nc5C5(CC5)C4=O)c3)cc(C(F)(F)F)c2)cn1 [Compound 8, N-(3-(2'-(cyclopropylamino)-7'-oxo-5'H-spiro[cyclopropane-1,8'-pyrido[4,3-d]pyrimidine]-6'(7'H)-yl)-4-methylphenyl)-3-(4-methyl-1H-imidazol-1-yl)-5-(trifluoromethyl)benzamide] | ≤ 40 | > 40 | ≤ 40 | ≤ 40 | ≤ 40 | ≤ 40 | > 40 | > 40 | ≤ 40 | > 40 | ≤ 40 | > 40 | > 40 | > 40 | > 40 | ≤ 40 | > 40 | > 40 | > 40 | > 40 | remaining activity at 1 µM ([2]; C-MET): > 40%; remaining activity at 1 µM ([3]; CAMK2G): > 40%; remaining activity at 1 µM ([18]; P38A/MAPK14, 1 µM): ≤ 40%; remaining activity at 1 µM ([19]; P38G): > 40%; remaining activity at 1 µM ([21]; PHKG1, 1 µM): > 40%; remaining activity at 1 µM ([23]; PKG1B): > 40%; remaining activity at 1 µM [27]: > 40%; remaining activity at 1 µM [28]: ≤ 40%; remaining activity at 1 µM [29]: > 40%; remaining activity at 1 µM [30]: > 40%; remaining activity at 1 µM [31]: > 40%; remaining activity at 1 µM [32]: > 40%; remaining activity at 1 µM [33]: ≤ 40%
Cc1ccc(Nc2ncc3c(n2)C2(CC2)C(=O)N(c2cc(NC(=O)c4cccc(C(F)(F)F)c4)ccc2C)C3)cn1 [Compound 51, N-(4-methyl-3-(2'-((6-methylpyridin-3-yl)amino)-7'-oxo-5'H-spiro[cyclopropane-1,8'-pyrido[4,3-d]pyrimidine]-6'(7'H)-yl)phenyl)-3-(trifluoromethyl)benzamide] | ≤ 40 | > 40 | ≤ 40 | ≤ 40 | ≤ 40 | ≤ 40 | > 40 | > 40 | ≤ 40 | > 40 | ≤ 40 | > 40 | ≤ 40 | > 40 | > 40 | ≤ 40 | > 40 | > 40 | > 40 | > 40 | remaining activity at 1 µM ([2]; c-MET): > 40%; remaining activity at 1 µM ([3]; CAMK2g): > 40%; remaining activity at 1 µM ([18]; P38a/MAPK14, 1 µM): ≤ 40%; remaining activity at 1 µM ([19]; P38g): > 40%; remaining activity at 1 µM ([21]; PHKgl, 1 µM): > 40%; remaining activity at 1 µM ([23]; PKG1b): > 40%; remaining activity at 1 µM [27]: > 40%; remaining activity at 1 µM [28]: ≤ 40%; remaining activity at 1 µM [29]: > 40%; remaining activity at 1 µM [30]: > 40%; remaining activity at 1 µM [31]: > 40%; remaining activity at 1 µM [32]: > 40%; remaining activity at 1 µM [33]: ≤ 40%

Reference: patent EP4722212A1, “NOVEL COMPOUND FOR INHIBITING PROTEIN KINASES AND PHARMACEUTICAL COMPOSITION COMPRISING SAME” (Magicbullettherapeutics Co., Ltd., priority 2023, dated 2024)
